Test results reported in paper PMC4074510 (Neuron, 2014).

How the values were obtained:
SGK1 = target: T1, SGK1 (Homo sapiens, UniProt O00141); assay: KINOMEscan competitive binding at […]; details: read-out: % binding remaining at 10 μM
T1 sequence (O00141 1-431): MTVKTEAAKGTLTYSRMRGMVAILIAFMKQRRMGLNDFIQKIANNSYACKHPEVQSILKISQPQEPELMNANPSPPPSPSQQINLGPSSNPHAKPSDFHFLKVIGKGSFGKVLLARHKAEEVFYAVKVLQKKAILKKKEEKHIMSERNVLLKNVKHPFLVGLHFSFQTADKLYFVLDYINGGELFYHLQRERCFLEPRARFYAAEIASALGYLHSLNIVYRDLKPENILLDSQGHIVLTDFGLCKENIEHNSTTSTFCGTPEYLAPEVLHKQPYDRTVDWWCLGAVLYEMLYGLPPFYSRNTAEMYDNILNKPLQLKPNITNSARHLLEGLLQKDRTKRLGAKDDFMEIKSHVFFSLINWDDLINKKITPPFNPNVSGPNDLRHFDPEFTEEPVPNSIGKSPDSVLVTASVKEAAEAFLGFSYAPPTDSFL

[1] = target: T2, PIP4K2C (Phosphatidylinositol-5-phosphate 4-kinase, type II, gamma) (Homo sapiens, UniProt Q8TBX8); assay: KINOMEscan competitive binding assay, dose-response
T2 sequence (Q8TBX8 2-421): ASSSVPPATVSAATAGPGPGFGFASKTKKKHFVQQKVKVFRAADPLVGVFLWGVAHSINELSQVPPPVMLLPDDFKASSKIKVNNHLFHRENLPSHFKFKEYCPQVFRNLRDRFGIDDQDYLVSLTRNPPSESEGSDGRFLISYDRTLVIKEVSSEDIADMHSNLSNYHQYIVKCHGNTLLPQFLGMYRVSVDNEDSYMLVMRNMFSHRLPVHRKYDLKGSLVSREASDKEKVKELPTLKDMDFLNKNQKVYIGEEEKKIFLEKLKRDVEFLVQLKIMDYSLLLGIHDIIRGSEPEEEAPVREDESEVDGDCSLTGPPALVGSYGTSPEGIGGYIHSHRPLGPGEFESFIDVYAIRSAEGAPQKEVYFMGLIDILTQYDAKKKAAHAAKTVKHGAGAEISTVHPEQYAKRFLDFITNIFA

PIP5K1C = PIP5K1C (Homo sapiens, UniProt O60331); assay: microfluidic mobility shift assay with fluorescein-PI; assay type: biochemical
Chain of PIP5K1C (O60331 whole entry): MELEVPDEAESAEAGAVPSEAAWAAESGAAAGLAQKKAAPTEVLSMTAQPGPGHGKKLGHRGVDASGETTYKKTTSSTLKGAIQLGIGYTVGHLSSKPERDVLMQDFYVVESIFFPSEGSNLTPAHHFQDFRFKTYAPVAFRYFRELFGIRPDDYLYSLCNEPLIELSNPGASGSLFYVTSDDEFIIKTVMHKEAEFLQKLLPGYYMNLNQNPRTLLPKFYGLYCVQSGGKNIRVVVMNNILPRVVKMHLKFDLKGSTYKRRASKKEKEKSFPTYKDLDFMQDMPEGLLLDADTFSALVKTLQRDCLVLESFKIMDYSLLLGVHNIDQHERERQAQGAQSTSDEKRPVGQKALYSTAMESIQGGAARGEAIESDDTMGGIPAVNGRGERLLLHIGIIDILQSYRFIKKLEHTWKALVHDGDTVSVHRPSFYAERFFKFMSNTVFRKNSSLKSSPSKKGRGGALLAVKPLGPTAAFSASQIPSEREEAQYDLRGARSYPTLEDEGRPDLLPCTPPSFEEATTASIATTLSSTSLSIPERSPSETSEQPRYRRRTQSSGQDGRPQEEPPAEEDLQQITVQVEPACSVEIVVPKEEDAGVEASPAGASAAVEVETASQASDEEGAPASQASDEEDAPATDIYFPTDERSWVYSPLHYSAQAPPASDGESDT

remaining binding at 10 µM (SGK1): 8% | Kd [1]: < 200 nM | IC50 (PIP5K1C): ~41 nM
SMILES: NC(=O)c1nc(Nc2ccccc2)sc1NC(=O)C1CCCCC1 [UNC3230, 5-(cyclohexanecarboxamido)-2-(phenylamino)thiazole-4-carboxamide]
